Experimental data as given in patent US7452887B2, “Quinoline- and isoquinoline-based compounds exhibiting ATP-utilizing enzyme inhibitory activity, and compositions, and uses thereof” (Amphora Discovery Corporation, priority 2004, dated 2008).

What was measured:
Test in all cases: HTS ATP-utilizing enzyme assay, off-chip mobility-shift (Caliper HTS 250)
Assay type in all cases: biochemical
Settings in all cases: test compound 10 μM, kinase listed = active (greater than six-sigma from the mean activity of inactive compounds)
C-TAK1 = C-TAK1 (Homo sapiens, UniProt P27448)
C-TAK1, sequence (P27448 whole entry): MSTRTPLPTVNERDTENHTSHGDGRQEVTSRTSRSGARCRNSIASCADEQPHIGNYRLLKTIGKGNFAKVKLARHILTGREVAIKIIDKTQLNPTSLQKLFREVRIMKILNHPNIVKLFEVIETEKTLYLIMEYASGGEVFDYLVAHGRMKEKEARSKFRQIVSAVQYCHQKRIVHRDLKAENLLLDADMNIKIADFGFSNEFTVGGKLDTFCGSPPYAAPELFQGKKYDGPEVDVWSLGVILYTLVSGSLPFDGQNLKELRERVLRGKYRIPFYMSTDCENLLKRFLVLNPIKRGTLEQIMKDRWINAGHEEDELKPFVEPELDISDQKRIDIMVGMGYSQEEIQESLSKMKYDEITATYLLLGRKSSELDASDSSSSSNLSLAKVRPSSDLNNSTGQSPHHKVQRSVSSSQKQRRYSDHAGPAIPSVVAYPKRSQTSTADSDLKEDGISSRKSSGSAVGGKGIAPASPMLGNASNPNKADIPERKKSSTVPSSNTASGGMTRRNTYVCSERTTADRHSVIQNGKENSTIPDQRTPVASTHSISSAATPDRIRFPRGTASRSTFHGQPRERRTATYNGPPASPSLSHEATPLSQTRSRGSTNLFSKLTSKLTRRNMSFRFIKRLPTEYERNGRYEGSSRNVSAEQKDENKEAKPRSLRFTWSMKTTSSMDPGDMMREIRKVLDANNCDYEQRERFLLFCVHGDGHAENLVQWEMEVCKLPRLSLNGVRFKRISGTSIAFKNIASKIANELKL
Text: (§1) The following procedures describe the reagent and plate preparation for a HTS of an ATP-utilizing enzyme, such as a protein kinase, run in an off-chip mobility-shift assay format. The following provides an HTS protocol for running a protein kinase HTS screen on a Caliper HTS 250 microfluidics system. The following parameters are dependent on the protein kinase used and can be determined by one skilled in the art as part of a typical assay development process. For example, the peptide substrate used can be identified from the current literature, by screening a peptide library of potential protein kinase substrates, or by other applicable means accepted in the field.
(§2) The following table provides typical screen assay parameters appropriate for a Caliper HTS 250 microfluidics system.
(§3) The reagents and buffers listed in the following table are generally applicable for developing and running an HTS screen on a human protein kinase using the Caliper HTS 250 system.
(§4) The following reagents were prepared using the previously described buffers.
(§5) A 2× Master Buffer solution was prepared by combining 200 mL of 1 M HEPES, pH 7.5, 2 mL of 10% Triton X-100, 20 mL of 10% BSA, and 778 mL of H2O.
(§6) A 2.5× Substrate Buffer solution was prepared by combining 177.408 mL of 2× Master Buffer, 0.887 mL of 1 mM peptide-X, and 176.521 mL of H2O.
(§7) A 1.55× Termination Buffer solution was prepared by combining 762.05 mL of 2× Master Buffer, 95.1 mL of 0.5 M EDTA, and 666.94 mL of H2O.
(§8) A TCB Buffer solution was prepared by combining 125 mL of 2× Master Buffer, 10 mL of 0.5 M EDTA, 6.25 mL of 4% coating reagent, 1.01 mL of 100% DMSO, and 107.74 mL H2O.
(§9) A Dye Trough solution was prepared by combining 0.5 μL of peptide-X, and 2,999.5 μL of IX Master Buffer.
(§10) A 1.06× Assay Buffer solution was prepared by combining 205.15 mL of 2× Master Buffer, and 181.92 mL of H2O.
(§11) Assays to determine the kinase inhibitory activity of compounds of the present disclosure were performed using a Caliper HTS 250 microfluidics device, Greiner U-bottom assay plates, a Multidrop for transfer of reagents, and Biomek FX (AMNCBM03) software. Initially, 2.4 μL of a 1 mM solution of a test compound in 100% DMSO was added to a well of the Greiner U-bottom plate. A single Greiner U-bottom plate having 24×16 wells could include multiple test compounds. Next, […] of 1.06× Assay Buffer was added to each well of the assay plate. Using the Biomek FX, 10 μL of 0.5 M EDTA was added by the span-8 to wells, indicated as 100% Control and 2.4 μL of 100% DMSO was added by the span-8 to wells, indicated as 0% Control. Using the Multidrop, 10 μL of 2.5× Enzyme Buffer, followed by 10 μL of 2.5× Substrate Buffer was added to each well of the assay plate. The total reaction volume in each well was 25 μL, and the concentration of the test compound was 10 μM. The assay plate was incubated for 2.5 hrs at 20° C. to 22° C. After the incubation period, using the Multidrop, 45 μL of 1.55× Termination Buffer was added to each well of the assay plate to stop the reaction. The inhibition of the ATP-utilizing enzyme, such as a particular protein kinase, was determined by measuring the ratio of the peptide substrate to phosphorylated product for each well of the assay plate using the Caliper HTS 250 system.
(§12) The use of six-sigma statistical limits represents a conservative method for declaring potential hits among targets. The six-sigma activity, as well as the mean population activity, can be different for each target enzyme. This method has an expected false positive rate, from an in-control measurement process, of one in one million.

PRAK = molecular target: T1, PRAK (Homo sapiens, UniProt Q8IW41)
T1 sequence (Q8IW41 1-473): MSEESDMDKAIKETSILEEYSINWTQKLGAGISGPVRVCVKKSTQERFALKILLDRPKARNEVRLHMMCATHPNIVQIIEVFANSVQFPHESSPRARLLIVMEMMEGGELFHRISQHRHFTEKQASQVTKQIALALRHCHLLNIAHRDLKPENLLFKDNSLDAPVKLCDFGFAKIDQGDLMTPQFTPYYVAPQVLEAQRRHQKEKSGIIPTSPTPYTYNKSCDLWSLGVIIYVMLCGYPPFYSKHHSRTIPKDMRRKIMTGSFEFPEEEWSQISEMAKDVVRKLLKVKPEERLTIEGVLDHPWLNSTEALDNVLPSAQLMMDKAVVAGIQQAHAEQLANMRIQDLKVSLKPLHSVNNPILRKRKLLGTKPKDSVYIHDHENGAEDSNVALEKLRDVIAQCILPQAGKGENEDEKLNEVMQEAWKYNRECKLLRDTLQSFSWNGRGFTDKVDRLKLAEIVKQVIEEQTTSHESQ
Text: as §1, §2, §3, §4, §5, §6, §7, §8, §9, §10, §11, §12

NEK2 = molecular target: T2, NEK2 (Homo sapiens, UniProt P51955)
T2 sequence (P51955 1-445): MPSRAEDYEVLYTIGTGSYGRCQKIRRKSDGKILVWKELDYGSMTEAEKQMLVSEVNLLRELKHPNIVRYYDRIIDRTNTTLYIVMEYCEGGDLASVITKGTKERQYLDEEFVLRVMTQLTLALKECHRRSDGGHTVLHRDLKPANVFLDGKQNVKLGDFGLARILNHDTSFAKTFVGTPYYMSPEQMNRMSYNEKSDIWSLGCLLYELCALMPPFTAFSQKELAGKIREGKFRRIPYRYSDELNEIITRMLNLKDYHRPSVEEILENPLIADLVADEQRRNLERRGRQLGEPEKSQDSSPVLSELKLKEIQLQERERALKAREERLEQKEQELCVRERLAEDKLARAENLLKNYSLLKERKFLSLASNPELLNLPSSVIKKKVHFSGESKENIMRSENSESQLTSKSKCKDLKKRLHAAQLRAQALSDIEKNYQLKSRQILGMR
Text: as §1, §2, §3, §4, §5, §6, §7, §8, §9, §10, §11, §12

MAPKAPK2 = MAPKAPK2 (Homo sapiens, UniProt P49137)
MAPKAPK2, sequence (P49137 whole entry): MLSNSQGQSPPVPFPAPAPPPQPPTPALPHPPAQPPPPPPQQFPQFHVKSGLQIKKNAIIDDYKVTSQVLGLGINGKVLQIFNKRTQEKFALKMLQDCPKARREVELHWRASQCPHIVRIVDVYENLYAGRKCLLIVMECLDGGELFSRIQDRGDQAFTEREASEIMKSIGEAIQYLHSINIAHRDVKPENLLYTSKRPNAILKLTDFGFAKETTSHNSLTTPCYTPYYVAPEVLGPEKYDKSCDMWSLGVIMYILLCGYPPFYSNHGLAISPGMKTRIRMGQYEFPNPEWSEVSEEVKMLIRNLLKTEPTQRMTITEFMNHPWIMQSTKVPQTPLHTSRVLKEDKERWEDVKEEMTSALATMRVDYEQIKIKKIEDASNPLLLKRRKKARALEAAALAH
Procedure, shortened: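 Phosphorylation of a peptide substrate was quantified by Caliper mobility-shift separation of substrate and product after 2.5 h at 20-22 °C, with compounds tested at 10 μM. Inhibition was normalized to EDTA-quenched (100%) and DMSO (0%) controls; six-sigma thresholds flagged actives.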

CHEK2 = CHEK2 (Homo sapiens, UniProt O96017)
CHEK2, sequence (O96017 whole entry): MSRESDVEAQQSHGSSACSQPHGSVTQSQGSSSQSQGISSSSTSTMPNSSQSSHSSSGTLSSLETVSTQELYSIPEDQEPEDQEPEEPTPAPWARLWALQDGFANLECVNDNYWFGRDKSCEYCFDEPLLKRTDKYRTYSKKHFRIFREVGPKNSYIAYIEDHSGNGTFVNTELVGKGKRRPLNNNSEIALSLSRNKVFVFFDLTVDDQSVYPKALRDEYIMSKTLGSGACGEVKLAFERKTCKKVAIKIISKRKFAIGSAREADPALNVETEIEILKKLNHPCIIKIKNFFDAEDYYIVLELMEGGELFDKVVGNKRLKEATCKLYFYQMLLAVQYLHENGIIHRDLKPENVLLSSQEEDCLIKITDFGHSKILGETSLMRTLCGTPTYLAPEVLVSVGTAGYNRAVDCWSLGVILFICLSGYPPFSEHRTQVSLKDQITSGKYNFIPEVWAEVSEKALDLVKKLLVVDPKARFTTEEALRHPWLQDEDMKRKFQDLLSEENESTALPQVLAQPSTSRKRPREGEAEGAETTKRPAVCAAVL
Text: as §1, §2, §3, §4, §5, §6, §7, §8, §9, §10, §11, §12

KIT = KIT (Homo sapiens, UniProt P10721)
KIT, sequence (P10721 26-976): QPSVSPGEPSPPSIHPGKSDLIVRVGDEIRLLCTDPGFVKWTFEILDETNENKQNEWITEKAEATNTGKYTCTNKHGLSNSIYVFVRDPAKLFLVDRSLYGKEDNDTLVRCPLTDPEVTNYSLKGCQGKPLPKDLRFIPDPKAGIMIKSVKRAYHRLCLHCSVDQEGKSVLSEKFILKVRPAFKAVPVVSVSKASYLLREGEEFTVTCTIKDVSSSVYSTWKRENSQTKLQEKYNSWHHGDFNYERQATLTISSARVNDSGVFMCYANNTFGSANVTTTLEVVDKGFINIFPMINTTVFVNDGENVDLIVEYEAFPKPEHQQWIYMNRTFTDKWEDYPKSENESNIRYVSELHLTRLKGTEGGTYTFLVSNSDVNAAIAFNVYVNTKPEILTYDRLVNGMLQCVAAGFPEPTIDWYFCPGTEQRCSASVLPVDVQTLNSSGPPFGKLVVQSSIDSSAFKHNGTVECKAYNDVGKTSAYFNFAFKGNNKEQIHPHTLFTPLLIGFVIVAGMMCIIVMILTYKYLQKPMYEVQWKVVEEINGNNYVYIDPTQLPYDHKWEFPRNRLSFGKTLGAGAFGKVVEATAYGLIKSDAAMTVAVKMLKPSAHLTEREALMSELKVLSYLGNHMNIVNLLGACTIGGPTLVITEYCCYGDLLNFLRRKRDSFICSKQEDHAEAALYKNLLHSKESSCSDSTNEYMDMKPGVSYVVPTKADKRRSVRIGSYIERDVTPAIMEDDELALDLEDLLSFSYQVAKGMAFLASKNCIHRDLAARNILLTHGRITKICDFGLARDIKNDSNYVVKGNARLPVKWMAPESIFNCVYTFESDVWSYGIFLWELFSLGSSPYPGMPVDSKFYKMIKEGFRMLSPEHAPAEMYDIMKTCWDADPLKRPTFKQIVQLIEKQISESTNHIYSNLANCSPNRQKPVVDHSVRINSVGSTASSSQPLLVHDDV
Text: as §1, §2, §3, §4, §5, §6, §7, §8, §9, §10, §11, §12

DYRK2 = molecular target: T3, DYRK2 (Homo sapiens, UniProt Q92630)
T3 sequence (Q92630 1-601): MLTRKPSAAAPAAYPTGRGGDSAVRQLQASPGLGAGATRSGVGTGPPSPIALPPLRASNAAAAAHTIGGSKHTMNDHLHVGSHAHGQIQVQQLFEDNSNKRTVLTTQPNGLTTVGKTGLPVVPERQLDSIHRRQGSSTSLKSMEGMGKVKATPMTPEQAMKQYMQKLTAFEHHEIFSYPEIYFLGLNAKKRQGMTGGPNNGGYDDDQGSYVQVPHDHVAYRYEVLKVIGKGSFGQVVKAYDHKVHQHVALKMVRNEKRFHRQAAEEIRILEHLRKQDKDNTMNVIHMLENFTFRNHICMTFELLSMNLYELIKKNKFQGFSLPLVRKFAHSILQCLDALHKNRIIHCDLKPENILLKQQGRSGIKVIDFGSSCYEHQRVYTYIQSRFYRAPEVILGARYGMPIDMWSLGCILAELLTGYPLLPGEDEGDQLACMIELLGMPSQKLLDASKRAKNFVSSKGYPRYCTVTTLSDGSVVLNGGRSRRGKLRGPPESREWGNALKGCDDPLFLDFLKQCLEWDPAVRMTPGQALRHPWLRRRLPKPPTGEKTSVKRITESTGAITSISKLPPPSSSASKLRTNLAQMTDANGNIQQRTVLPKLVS
Text: as §1, §2, §3, §4, §5, §6, §7, §8, §9, §10, §11, §12

| Structure (SMILES) | Activity (C-TAK1) | Activity (PRAK) | Activity (NEK2) | Activity (MAPKAPK2) | Activity (CHEK2) | Activity (KIT) | Activity (DYRK2) |
| --- | --- | --- | --- | --- | --- | --- | --- |
| Cc1cc(-c2ccc3nccc(Nc4ccc(N5CCN(C)CC5)cc4)c3c2)ccc1F [6-(4-fluoro-3-methylphenyl)-N-(4-(4-methylpiperazin-1-yl)phenyl)quinolin-4-amine] | C-TAK1 | PRAK | NEK2 | MAPKAPK2 | – | – | – |
| CN1CCN(c2ccc(Nc3ccnc4ccc(-c5ccco5)cc34)cc2)CC1 [6-(furan-2-yl)-N-(4-(4-methylpiperazin-1-yl)phenyl)quinolin-4-amine] | – | PRAK | – | MAPKAPK2 | CHEK2 | – | – |
| CCOc1cccc(-c2ccc3nccc(Nc4ccc(N5CCN(C)CC5)cc4)c3c2)c1 [6-(3-ethoxyphenyl)-N-(4-(4-methylpiperazin-1-yl)phenyl)quinolin-4-amine] | – | PARK | NEK2 | MAPKAPK2 | CHEK2 | – | – |
| N#Cc1ccc(-c2ccc3nccc(Nc4ccc(C5CCNCC5)cc4)c3c2)cc1 [4-(4-(4-(piperidin-4-yl)phenylamino)quinolin-6-yl)benzonitrile] | – | – | – | – | – | KIT | – |
| COc1ccc(-c2ccc3nccc(Nc4ccc(N5CCN(C)CC5)cc4)c3c2)cc1OC [6-(3,4-dimethoxyphenyl)-N-(4-(4-methylpiperazin-1-yl)phenyl)quinolin-4-amine] | – | PRAK | NEK2 | MAPKAPK2 | – | – | DYRK2 |
| Cc1csc(-c2ccc3nccc(Nc4ccc(N5CCN(C)CC5)cc4)c3c2)c1 [N-(4-(4-methylpiperazin-1-yl)phenyl)-6-(4-methylthiophen-2-yl)quinolin-4-amine] | – | PRAK | NEK2 | MAPKAPK2 | CHEK2 | – | – |
| CN(C)C1CCN(c2ccc(Nc3ccnc4ccc(-c5ccc(C#N)cc5)cc34)cc2)CC1 [4-(4-(4-(4-(dimethylamino)piperidin-1-yl)phenylamino)quinolin-6-yl)benzonitrile] | – | – | – | – | – | KIT | – |
| CC(C)N1CCN(c2ccc(Nc3ccnc4ccc(-c5ccccc5)cc34)cc2)CC1 [N-(4-(4-isopropylpiperazin-1-yl)phenyl)-6-phenylquinolin-4-amine] | – | – | – | MAPKAPK2 | – | KIT | – |
| CN1CCN(c2ccc(Nc3ccnc4ccc(-c5ccc(Oc6ccccc6)cc5)cc34)cc2)CC1 [N-(4-(4-methylpiperazin-1-yl)phenyl)-6-(4-phenoxyphenyl)quinolin-4-amine] | C-TAK1 | PRAK | – | MAPKAPK2 | – | – | – |
| CN1CCN(c2ccc(Nc3ccnc4ccc(-c5cccc(-c6ccccc6)c5)cc34)cc2)CC1 [6-(biphenyl-3-yl)-N-(4-(4-methylpiperazin-1-yl)phenyl)quinolin-4-amine] | C-TAK1 | PRAK | – | MAPKAPK2 | – | – | – |

Second part, the compound after the results:

| Activity (C-TAK1) | Activity (PRAK) | Activity (NEK2) | Activity (MAPKAPK2) | Activity (CHEK2) | Activity (KIT) | Activity (DYRK2) | Structure (SMILES) |
| --- | --- | --- | --- | --- | --- | --- | --- |
| C-TAK1 | PRAK | NEK2 | MAPKAPK2 | – | – | – | CCSc1ccc(-c2ccc3nccc(Nc4ccc(N5CCN(C)CC5)cc4)c3c2)cc1 [6-(4-(ethylthio)phenyl)-N-(4-(4-methylpiperazin-1-yl)phenyl)quinolin-4-amine] |
| – | PRAK | NEK2 | – | – | – | DYRK2 | COc1cccc(-c2ccc3nccc(Nc4ccc(N5CCN(C)CC5)cc4)c3c2)c1 [6-(3-methoxyphenyl)-N-(4-(4-methylpiperazin-1-yl)phenyl)quinolin-4-amine] |
| – | PRAK | NEK2 | MAPKAPK2 | CHEK2 | – | – | C=Cc1ccc(-c2ccc3nccc(Nc4ccc(N5CCN(C)CC5)cc4)c3c2)cc1 [N-(4-(4-methylpiperazin-1-yl)phenyl)-6-(4-vinylphenyl)quinolin-4-amine] |
| C-TAK1 | – | – | MAPKAPK2 | – | – | DYRK2 | COc1ccc(-c2ccc3nccc(Nc4ccc(N5CCN(CCN(C)C)CC5)cc4)c3c2)cc1 [N-(4-(4-(2-(dimethylamino)ethyl)piperazin-1-yl)phenyl)-6-(4-methoxyphenyl)quinolin-4-amine] |
| – | PRAK | NEK2 | MAPKAPK2 | – | – | DYRK2 | COc1ccc(-c2ccc3nccc(Nc4ccc(N5CCN(C)CC5)cc4)c3c2)cc1 [6-(4-methoxyphenyl)-N-(4-(4-methylpiperazin-1-yl)phenyl)quinolin-4-amine] |
| – | – | – | MAPKAPK2 | – | – | DYRK2 | COc1ccc(-c2ccc3nccc(Nc4ccc(N5CCN(CCCO)CC5)cc4)c3c2)cc1 [3-(4-(4-(6-(4-methoxyphenyl)quinolin-4-ylamino)phenyl)piperazin-1-yl)propan-1-ol] |
